# PMC6161602, “Synthesis and characterisation of (Z)-styrylbenzene derivatives as potential selective anticancer agents” (Journal of Enzyme Inhibition and Medicinal Chemistry, 2018)
# Assays:
# BEL-7402 cells [1] = test: Transwell cell migration assay; format: cell-based, human; conditions: BEL-7402, transwell, 24 h, 0.1 or 0.5 µM
# Method: Quantitative cell migration was performed using 24-well Boyden chambers (Corning, NY, USA) as described. Briefly, transwells with 8-µm pore size filters were inserted into 24-well plates. RPMI-1640 (500 µL) containing 10% FBS was added to the lower chamber, and 100 µL of a serum-free cell suspension (1 × 10^5 cells) was placed in the upper chamber. The BEL-7402 cells were pre-treated with indicated concentrations of 6h, taxol, or DMSO. The plates were incubated at 37 °C with 5% CO2 for 24 h, and the cells on the upside were removed using cotton swaps. After several rinses, the cells adhering in the lower layer of insert were fixed with methanol and stained with 1× crystal violet solution. The number of migrated cells in nine randomly selected fields from triplicate chambers was counted in each experiment under a phase-contrast microscope at 200× magnification.
# BEL-7402 cells [2] = test: Trypan blue staining; format: cell-based; conditions: 0.001 µM to 10 µM, data not shown
# Method: Trypan blue staining was used to further investigate the cytotoxicity of 6h.
# [3] = test system: HeLa cervical cancer cell; test: MTT cell growth inhibition assay, HeLa; format: cell-based, human; conditions: Homo sapiens, 48 h incubation
# Outline: (§1)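 After one day of attachment at 30–40% density, cells got four serial compound levels (1, 10, 50, 100 µM). Incubation lasted 48 h, followed by MTT and measurement at 492 nm.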
# BEL-7402 cells [4] = test: Colony formation assay; format: cell-based, human; conditions: BEL-7402, exposure > 10 days, fitted from inhibition ratio of colony formation
# Method: A previously described colony formation assay was used[7] with slight modification. 1 × 10^4 BEL-7402 cells/well were seeded into 6-well plates and then stimulated with the indicated concentration of 6h, taxol, or DMSO. The plates were removed from incubation when colonies were large enough to count (>50 cells). Colonies were then fixed and stained with 1 × Giemsa solution, rinsed, allowed to dry, and counted. All the experiments were repeated independently at least three times. The LD50 value for 6h was determined using SigmaPlot II.
# AGS cells = test: MTT cell growth inhibition assay, AGS; format: cell-based, human
# Outline: as §1
# MGC-803 cells = test: MTT cell growth inhibition assay, MGC-803; format: cell-based, human; conditions: for IC50: MTT, 48 h incubation, MGC-803
# Outline: as §1
# L-02 normal liver cell = test: MTT cell growth inhibition assay, L-02 (normal); format: cell-based, human; conditions: Homo sapiens, 48 h incubation, L-02 normal cells
# Outline: as §1
# [5] = test system: SGC-7901 early differentiation gastric cancer cell; test: MTT cell growth inhibition assay, SGC-7901; format: cell-based, human; conditions: Homo sapiens, 48 h incubation
# Outline: as §1
# HepG2 hepatoma cell = test: MTT cell growth inhibition assay, HepG-2; format: cell-based, human
# Outline: as §1
# [6] = test system: MCF-10A normal breast cell; test: MTT cell growth inhibition assay, MCF-10A (normal); format: cell-based, human; conditions: Homo sapiens, 48 h incubation, MCF-10A normal cells
# Outline: as §1
# BEL-7402 cells [7] = test: Analysis of apoptosis by flow cytometry (Annexin V-FITC/PI); format: cell-based, human; conditions: BEL-7402, 0.1 µM, 12 h; vehicle 4.7%
# Method: Apoptosis was detected using an apoptosis detection kit. BEL-7402 cells were plated in 6-well plates (5.0 × 10^5 cells/well) and incubated at 37 °C overnight. Exponentially growing cells were then incubated with 6h at either 0.01 or 0.1 µM, or taxol at 0.1 µM. Vehicle group was treated with 0.1% DMSO. Following 12 h of incubation, cells were analysed for apoptosis as previously described, using a FACSCalibur flow cytometer with Cell Quest software (Becton-Dickinson, Franklin Lakes, NJ, USA).
# cyclin A = test: Western blotting, cyclin A; format: cell-based, human; conditions: BEL-7402, 12 h, immunoblot, dose-dependent
# Method: BEL-7402 cells were harvested in logarithmic growth phase and the adherent and floating cells were collected after 12 h of drug treatment. The collected cells were resuspended in cold RIPA buffer (100 mM NaCl, 100 mM Tris (pH7.4), 10% Triton X-100, 1 mM PMSF, pH7.5) with 0.1 µM leupetin protease inhibitor as well as 1 µg/mL pepstatin and cracked on ice for 30 min. Then according to the reference to did immunoblotting assay.
smiles,measurement,setting,value
"COc1cc(/C(C#N)=C/c2ccc(C)cc2)cc(OC)c1OC [Compound 6h, (Z)-3-(p-Tolyl)-2-(3,4,5-trimethoxyphenyl)acrylonitrile]",migration ratio compared with the control group,BEL-7402 cells [1],markedly decreased
same,percentages of dead cells (trypan blue),BEL-7402 cells [2],negligible
same,IC50,[3],> 100 µM
same,LD50 (colony formation),BEL-7402 cells [4],0.056 ± 0.0047 µM
same,IC50,"AGS cells; Homo sapiens, MTT, 48 h incubation, AGS",0.51 ± 0.45 µM
same,SI IC50 (L-02/AGS),"AGS cells; selectivity index, IC50 (L-02)/IC50 (AGS)",>196.0
same,fold more active than taxol against MGC-803 cells,MGC-803 cells,6 fold
same,IC50,"MGC-803 cells; Homo sapiens, MGC-803, 48 h",0.01 to 7.21 µM
same,IC50,MGC-803 cells,< 0.01 µM
same,IC50,L-02 normal liver cell,> 100 µM
same,IC50,[5],> 100 µM
same,IC50,"HepG2 hepatoma cell; Homo sapiens, HepG2, MTT, 48 h incubation, HepG-2",3.74 ± 1.73 µM
same,SI IC50 (L-02/HepG-2),"HepG2 hepatoma cell; selectivity index, IC50 (L-02)/IC50 (HepG-2)",>26.7
same,IC50,[6],9.45 ± 5.25 µM
same,total apoptotic cells (early + late apoptotic cells),BEL-7402 cells [7],10.2%
same,expression of cyclin A compared with the vehicle group,cyclin A,lower expression
